These results are taken from patent US11008345B2, “Boron-containing small molecules” (Anacor Pharmaceuticals, Inc., priority 2010, dated 2021).

Structures can show the parent of a compound that is named as a salt. Where two headings read alike, the source gives them in different places.

The subject of experiment [1] is M. tuberculosis strain Erdman. Format: in vivo. Particulars: day 24, C57BL/6 GKO mice.
Experiment [2] deals with M. tuberculosis strain Erdman. The format is in vivo. Particulars: C57BL/6 GKO mice; for log 10 CFU for lungs: day 22, lungs; for log 10 CFU for spleens: day 22, spleens.

As to `CCOc1ccc(Br)c2c1B(O)OC2CN` (stereo not shown) [E, 3-(Aminomethyl)-4-bromo-7-ethoxybenzo[c][1,2]oxaborol-1(3H)-ol 2,2,2-trifluoroacetate Salt], the “log 10 CFU/lung” value in experiment [1] (100 mg/kg BID PO) is listed as 2.73 (0.05) log 10 CFU/lung. Moreover, in experiment [2] (100 mg/kg QD PO), the “log 10 CFU for lungs” value is 5.27 (0.12) log 10 CFU and the “log 10 CFU for spleens” value is on record as 4.27 (0.25) log 10 CFU.
`CCOc1ccc(Cl)c2c1B(O)O[C@@H]2CN.Cl` (single isomer, unassigned) [L]: the “log 10 CFU/lung” value in experiment [1] (100 mg/kg QD PO) was 3.08 (0.06) log 10 CFU/lung.
Regarding `CCOc1ccc(F)c2c1B(O)OC2CN.Cl` (stereo not shown) [C, 3-Aminomethyl-7-ethoxy-4-fluoro-3H-benzo[c][1,2]-oxaborol-1-ol; Hydrochloride], in experiment [1] (100 mg/kg BID PO), the “log 10 CFU/lung” value is recorded as 5.06 (0.26) log 10 CFU/lung.
For `NNC(=O)c1ccncc1` [INH, Isoniazid, reference compound], in experiment [2] (25 mg/kg QD PO), the “log 10 CFU for lungs” value is 5.29 (0.13) log 10 CFU and the “log 10 CFU for spleens” value is 4.27 (0.25) log 10 CFU.
Turning to `CCOc1ccc(F)c2c1B(O)O[C@@H]2CN.Cl` (single isomer, unassigned) [N], in experiment [2] (100 mg/kg BID PO), the “log 10 CFU for lungs” value is listed as 5.51 (0.09) log 10 CFU and the “log 10 CFU for spleens” value is 2.42 (0.48) log 10 CFU.
As to `CO[C@H]1/C=C/O[C@@]2(C)Oc3c(C)c(O)c4c(O)c(c(/C=N/N5CCN(C)CC5)c(O)c4c3C2=O)NC(=O)/C(C)=C\C=C\[C@H](C)[C@H](O)[C@@H](C)[C@@H](O)[C@@H](C)[C@H](OC(C)=O)[C@@H]1C` [rifampicin, reference compound], the “log 10 CFU/lung” value in experiment [1] (10 mg/kg QD PO) was 6.16 (0.10) log 10 CFU/lung.
